Measurements reported in PubChem BioAssay AID330 (DTP/NCI, 2004).
Where “and” joins values, the source holds several entries; their conditions need not be identical. Equal entries are not always repeated. Toxic doses and inconclusive results are not listed. The calls were made as follows: active = survival T/C of 150% or more; inactive = T/C below 125% in these data. Square brackets hold non-standard residues; d marks the D form. Peptide text beside a SMILES is read from it. * marks the point of attachment. Cbz = O=C(OCc1ccccc1)*; Dha = C=C(N)C(=O)O

Tested on: P388 leukemia ip, CD2F1 mice, survival T/C
Experiment: NCI In Vivo Anticancer Drug Screen. Data for tumor model P388 Leukemia (intraperitoneal) in CD2F1 (CDF1) mice
Conditions: endpoint: median survival time, higher = longer survival
Summary of the method: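 Mice carrying the transplanted tumor received test compound or vehicle. Survival was recorded in each group, and the value is the treated-group measurement divided by that of the vehicle-treated control group.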

[1] = dose: 6.25 mg/kg/injection, schedule: Q01DX005 (ip), vehicle: Klucel (hydroxypropylcellulose) (HPC)
[2] = dose: 12.5 mg/kg/injection, schedule: Q01DX005 (ip), vehicle: Klucel (hydroxypropylcellulose) (HPC)
[3] = dose: 50.0 mg/kg/injection, schedule: Q01DX009 (ip), vehicle: saline
[4] = dose: 100.0 mg/kg/injection, schedule: Q01DX009 (ip), vehicle: saline
[5] = dose: 60.0 mg/kg/injection, schedule: Q01DX005 (ip), vehicle: saline with Tween-80
[6] = dose: 120.0 mg/kg/injection, schedule: Q01DX005 (ip), vehicle: saline with Tween-80
[7] = dose: 240.0 mg/kg/injection, schedule: Q01DX005 (ip), vehicle: saline with Tween-80
[8] = dose: 50.0 mg/kg/injection, schedule: Q01DX005 (ip), vehicle: saline with Tween-80
[9] = dose: 100.0 mg/kg/injection, schedule: Q01DX005 (ip), vehicle: saline with Tween-80
[10] = dose: 200.0 mg/kg/injection, schedule: Q01DX005 (ip), vehicle: saline with Tween-80
[11] = dose: 25.0 mg/kg/injection, schedule: Q01DX009 (ip), vehicle: saline with Tween-80
[12] = dose: 50.0 mg/kg/injection, schedule: Q01DX009 (ip), vehicle: saline with Tween-80
[13] = dose: 100.0 mg/kg/injection, schedule: Q01DX009 (ip), vehicle: saline with Tween-80
[14] = dose: 200.0 mg/kg/injection, schedule: Q01DX009 (ip), vehicle: saline with Tween-80
[15] = dose: 60.0 mg/kg/injection, schedule: Q01DX005 (ip), vehicle: saline
[16] = dose: 120.0 mg/kg/injection, schedule: Q01DX005 (ip), vehicle: saline
[17] = dose: 240.0 mg/kg/injection, schedule: Q01DX005 (ip), vehicle: saline
[18] = dose: 50.0 mg/kg/injection, schedule: Q01DX005 (ip), vehicle: Klucel (hydroxypropylcellulose) (HPC)
[19] = dose: 100.0 mg/kg/injection, schedule: Q01DX005 (ip), vehicle: Klucel (hydroxypropylcellulose) (HPC)
[20] = dose: 200.0 mg/kg/injection, schedule: Q01DX005 (ip), vehicle: Klucel (hydroxypropylcellulose) (HPC)
[21] = dose: 200.0 mg/kg/injection, schedule: Q01DX009 (ip), vehicle: saline

Measured: T/C

[CH3][Sn]([CH3])([n]1cnc2ccccc21)[n]1cnc2ccccc21
inactive: dose: 3.12 mg/kg/injection, schedule: Q01DX005 (ip), vehicle: Klucel (hydroxypropylcellulose) (HPC) 111 % of control | [1] 115 % of control | [2] 118 % of control

C=C(NC(=O)C(C)NC(=O)OCc1ccccc1)C(=O)N1CCCC1C(=O)NC(C)C(=O)NC (stereo not drawn) (Cbz-A[Dha]PA-NHMe; configuration not given here)
inactive: dose: 25.0 mg/kg/injection, schedule: Q01DX009 (ip), vehicle: saline 111 % of control | [3] 100 % of control | [4] 96 % of control

CCn1cc(C(=O)O)c(=O)c2nc(N3CCOCC3)sc21
inactive: [5] 106 % of control | [6] 95 % of control | [7] 98 % of control

CC(=O)OC1COC(Nc2[nH]c(=O)n(C)c(=O)c2C(=O)CCl)C(OC(C)=O)C1OC(C)=O (stereo not drawn)
inactive: [8] 104 % of control | [9] 96 % of control | [10] 93 % of control

O=c1c(Cc2ccccc2)coc2ccccc12
inactive: [5] 106 % of control | [6] 100 % of control | [7] 103 % of control

CN(C)c1ccc(-c2nnc3c(c(=O)n(C)c(=O)n3C)[n+]2[O-])cc1
inactive: dose: 25.0 mg/kg/injection, schedule: Q01DX001 (ip), vehicle: Klucel (hydroxypropylcellulose) (HPC) 102 % of control | dose: 50.0 mg/kg/injection, schedule: Q01DX001 (ip), vehicle: Klucel (hydroxypropylcellulose) (HPC) 93 % of control | dose: 100.0 mg/kg/injection, schedule: Q01DX001 (ip), vehicle: Klucel (hydroxypropylcellulose) (HPC) 100 % of control and 94 % of control

COc1ccc(/C(C#N)=C\c2ccnc3ccccc23)c(OC)c1
inactive: dose: 12.5 mg/kg/injection, schedule: Q01DX009 (ip), vehicle: other 87 % of control | dose: 25.0 mg/kg/injection, schedule: Q01DX009 (ip), vehicle: other 91 % of control | dose: 50.0 mg/kg/injection, schedule: Q01DX009 (ip), vehicle: other 87 % of control | dose: 100.0 mg/kg/injection, schedule: Q01DX009 (ip), vehicle: other 87 % of control | dose: 200.0 mg/kg/injection, schedule: Q01DX009 (ip), vehicle: other 87 % of control

O=C(Nc1ccc(Cl)cc1)Nc1ccc(Cl)nn1
inactive: dose: 3.12 mg/kg/injection, schedule: Q04DX002 (ip), vehicle: Klucel (hydroxypropylcellulose) (HPC) 101 % of control | dose: 6.25 mg/kg/injection, schedule: Q04DX002 (ip), vehicle: Klucel (hydroxypropylcellulose) (HPC) 102 % of control | dose: 12.5 mg/kg/injection, schedule: Q04DX002 (ip), vehicle: Klucel (hydroxypropylcellulose) (HPC) 98 % of control | dose: 25.0 mg/kg/injection, schedule: Q04DX002 (ip), vehicle: Klucel (hydroxypropylcellulose) (HPC) 115 % of control | dose: 50.0 mg/kg/injection, schedule: Q04DX002 (ip), vehicle: Klucel (hydroxypropylcellulose) (HPC) 90 % of control | dose: 100.0 mg/kg/injection, schedule: Q04DX002 (ip), vehicle: Klucel (hydroxypropylcellulose) (HPC) 88 % of control and 95 % of control

C=CCN(N=Nc1ccc(Cl)cc1)c1ccc(Cl)cc1
inactive: [11] 104 % of control and 91 % of control | [12] 107 % of control and 117 % of control | [13] 108 % of control and 111 % of control | [14] 110 % of control and 117 % of control and 118 % of control

O=c1[nH][nH]c2c1SCc1ccccc1-2
inactive: [12] 110 % of control | [13] 117 % of control | [14] 86 % of control

COc1cccc(OC)c1OCc1ccc(OCc2ccccc2)cc1
inactive: [8] 100 % of control | [9] 95 % of control | [10] 105 % of control

NOCc1cccc(Cl)c1
inactive: [11] 87 % of control | [13] 87 % of control

CC(=O)Oc1c(Cl)c(Cl)c(C#N)c(Cl)c1C#N
inactive: [11] 100 % of control and 105 % of control | [12] 105 % of control

C/C(=N/NC(=S)N1CC2CCC(CC2)C1)c1cnccn1
inactive: dose: 6.25 mg/kg/injection, schedule: Q01DX005 (ip), vehicle: saline with Tween-80 102 % of control | dose: 12.5 mg/kg/injection, schedule: Q01DX005 (ip), vehicle: saline with Tween-80 117 % of control

CCOC(=O)/C=C/CC1CCNC1 (stereo not drawn)
inactive: [15] 100 % of control | [16] 100 % of control | [17] 106 % of control

CCN(CC)CCNC(=O)c1cc(Cl)c(C(=O)NO)cc1OC
inactive: [1] 87 % of control | [2] 95 % of control | dose: 25.0 mg/kg/injection, schedule: Q01DX005 (ip), vehicle: Klucel (hydroxypropylcellulose) (HPC) 104 % of control

O=C(N/N=C\c1c(O)ccc2ccccc12)C1CC1
inactive: [18] 103 % of control | [19] 97 % of control | [20] 101 % of control

CC(C(=O)O)c1cn(Cc2ccccc2)c2ccccc12 (stereo not drawn)
inactive: [5] 100 % of control | [6] 102 % of control | [7] 96 % of control

CCCCC(O)c1ccc[n+]([O-])c1 (stereo not drawn)
inactive: [3] 94 % of control | [4] 94 % of control | [21] 93 % of control

CCN(CC)CC(C)(C)C(=O)/C=C/c1ccc(C)cc1
inactive: [15] 103 % of control | [16] 103 % of control | [17] 110 % of control

O=[n+]1c2c(n([O-])c3cc(Cl)c(Cl)cc31)CCCC2
inactive: dose: 12.5 mg/kg/injection, schedule: Q01DX009 (ip), vehicle: saline with Tween-80 87 % of control | [11] 89 % of control | [12] 98 % of control and 86 % of control

C1=Cc2cc(CN3CCOCC3)ccc2Nc2ccc(CN3CCOCC3)cc21
inactive: dose: 60.0 mg/kg/injection, schedule: Q01DX005 (ip), vehicle: Klucel (hydroxypropylcellulose) (HPC) 96 % of control | dose: 120.0 mg/kg/injection, schedule: Q01DX005 (ip), vehicle: Klucel (hydroxypropylcellulose) (HPC) 94 % of control | dose: 240.0 mg/kg/injection, schedule: Q01DX005 (ip), vehicle: Klucel (hydroxypropylcellulose) (HPC) 99 % of control

CCCCCCCCCCC1OCN2CC(CC)CCC12 (stereo not drawn)
inactive: dose: 50.0 mg/kg/injection, schedule: Q01DX005 (ip), vehicle: saline 100 % of control | dose: 100.0 mg/kg/injection, schedule: Q01DX005 (ip), vehicle: saline 101 % of control | dose: 200.0 mg/kg/injection, schedule: Q01DX005 (ip), vehicle: saline 105 % of control

COC(=O)C(C)CSc1ccccc1 (stereo not drawn)
inactive: [15] 99 % of control | [16] 107 % of control

O=C(O)c1cccc2c1SC(c1ccccc1)OC2=O (stereo not drawn)
inactive: dose: 50.0 mg/kg/injection, schedule: Q01DX005 (ip), vehicle: distilled water + alcohol 103 % of control | dose: 100.0 mg/kg/injection, schedule: Q01DX005 (ip), vehicle: distilled water + alcohol 99 % of control | dose: 200.0 mg/kg/injection, schedule: Q01DX005 (ip), vehicle: distilled water + alcohol 109 % of control

CCOC(=O)Cc1cc(O)c(C(=O)OCC)c(O)c1C(=O)OCC
inactive: dose: 100.0 mg/kg/injection, schedule: Q01DX001 (ip), vehicle: saline with Tween-80 105 % of control | dose: 200.0 mg/kg/injection, schedule: Q01DX001 (ip), vehicle: saline with Tween-80 105 % of control | dose: 400.0 mg/kg/injection, schedule: Q01DX001 (ip), vehicle: saline with Tween-80 99 % of control

CN(C)Cc1ncccc1O
inactive: [4] 102 % of control and 95 % of control | [21] 100 % of control and 112 % of control | dose: 400.0 mg/kg/injection, schedule: Q01DX009 (ip), vehicle: saline 113 % of control

O=c1c2ccccc2[nH]c2cc3c(=O)n4ccccc4nc3cc12
inactive: dose: 30.0 mg/kg/injection, schedule: Q01DX005 (ip), vehicle: saline with Tween-80 94 % of control | [5] 101 % of control and 91 % of control | [6] 93 % of control | [7] 93 % of control

COC(=O)C1(OC)C(=O)NC2=C1C(=O)c1ccccc1C2=O (stereo not drawn)
inactive: [8] 94 % of control | [9] 105 % of control | [10] 106 % of control

CCOC(=O)\C(C#N)=C/C=C/C(C)=C/Nc1ccc([N+](=O)[O-])cc1[N+](=O)[O-]
inactive: [18] 91 % of control | [19] 91 % of control | [20] 102 % of control
